The subject of one experiment is human serum-derived IgG. The experiment in a line: Dynamic binding capacity (DBC) measurement and alkali resistance evaluation of peptide-immobilized column. The note with it: initial value; 1 mg peptide on 1-mL column, 1 mL/min. The protocol:
Five mL of 1 mM hydrochloric acid was sent to an NHS-activated prepacked column having a volume of 1 mL, and an isopropanol solution in the column was removed. Next, a 10.0 mg/mL peptide solution (dissolved in 100 μL of DMSO) was diluted with a coupling solution (20 mM carbonate buffer, 50 mM sodium chloride, pH 8.3) by 10-fold, 1 mL of the dilution liquid was sent, and immobilization was performed at room temperature for 4 hours. Thereafter, unreacted NHS was blocked by 5 mL of 1 M Tris (pH 8.0) at room temperature for 1 hour. Thereafter, washing with 5 mL of an aqueous 0.1 N NaOH solution was made. Finally, 10 mL of a PBS solution (20 mM phosphate buffer, 150 mM sodium chloride, pH 7.4) was sent, and used in chromatography evaluation.
A column where the amount of immobilization of a peptide was 1 mg was produced by the same method as described above. The column produced was equilibrated with PBS, and 1 mg/mL human serum-derived IgG (manufactured by Sigma-Aldrich Co. LLC) dissolved in PBS was sent at a flow rate of 1 mL/min (retention time 1 min). DBC was indicated as one determined from the amount of a protein added at the time of point where 10% of the absorbance at 280 nm of the sample added was leaked.
Next, 5 mL of an aqueous 0.1 N sodium hydroxide solution was sent to the 1-mL column where 1 mg of the peptide was immobilized. Thereafter, washing with PBS was performed. This cycle was repeated 30 times for the 1,1-dichloroacetone-crosslinked cyclic peptide, and was repeated 10 times for the 1,1-dichloropinacolin-crosslinked cyclic peptide. DBC measurement was performed at a flow rate of 1 mL/min at the 1st to 5th and 10th times of the cycles, and further performed at the 20th and 30th times of the cycles with respect to the 1,1-dichloroacetone-crosslinked cyclic peptide, and thus alkali resistance was evaluated. The variation in DBC was determined based on the measurement results under the assumption that DBC immediately after column production was 100% according to Table 2.
Five mL of a 0.1 M sodium hydroxide solution was sent to the produced 1-mL column where the amount of immobilization of a peptide was 1 mg, and thereafter washing with 5 mL of PBS was performed. These operations were defined as one cycle and treatment of washing with aqueous NaOH solution/washing with PBS was performed 1 to 30 times, and thereafter DBC measurement was performed at a flow rate of 1 mL/min at the intended number of times (1, 2, 3, 4, 5, 10, 20, 30 times).

A further experiment addresses human IgG1 (Homo sapiens, UniProt P01857). Description: SPR (BIAcore T200) measurement of binding affinity of crosslinked cyclic peptide to immobilized IgG. As to the method: The affinity analysis was performed by the following method. First, a CM5 sensor chip was installed on BIAcoreT200 (GE healthcare), and 0.4 M 1-ethyl-3-(3-dimethylaminopropyl)carbodiimide (EDC) and a 0.1 M sulfo-N-hydroxysuccinimide (sulfo-NHS) solution mixed in equivalent amounts were injected to the sensor chip at a flow rate of […], to thereby activate the sensor chip. Thereafter, IgG was immobilized onto the sensor chip under a condition of a pH of 5.5 (10 mM Na acetate). An HBS-EP buffer (10 mM HEPES, 150 mM NaCl, 0.005% Tween 20, 3 mM EDTA, pH 7.4) was used in measurement, and 15.625, 31.2, 62.5, 125, 250, and 500 nM of peptides were each injected at a flow rate of […] for 180 seconds, to thereby monitor binding reaction. When dissociation reaction was measured, only the buffer was injected for 600 seconds. The interaction parameter was analyzed with BIAevaluation T100 software.
IgG-binding peptide derivatives compared and evaluated are illustrated in FIG. 1.
Background: In SPR one partner is held on a chip, and binding of the other changes the refractive index at the surface.

The next experiment concerns the target IgG. Particulars: Patent Literature 2; read-out: Kd (affinity with IgG); cited from earlier work.

Molecules are shown by their SMILES. Starred links: 1 amine or outer side, 2 acyl side, 3 side chain; linkers in the order of their positions; H or OH if unused. Positions of bridges follow the written chain, without caps; N, C: chain ends. Residues, ends and D or L forms follow the SMILES beside them. CH2COCH2 = O=C(C[*:1])C[*:2]

What is called Kd is the constant that tells how readily two partners part at equilibrium.

human IgG1, sequence (P01857 1-328 limits assumed): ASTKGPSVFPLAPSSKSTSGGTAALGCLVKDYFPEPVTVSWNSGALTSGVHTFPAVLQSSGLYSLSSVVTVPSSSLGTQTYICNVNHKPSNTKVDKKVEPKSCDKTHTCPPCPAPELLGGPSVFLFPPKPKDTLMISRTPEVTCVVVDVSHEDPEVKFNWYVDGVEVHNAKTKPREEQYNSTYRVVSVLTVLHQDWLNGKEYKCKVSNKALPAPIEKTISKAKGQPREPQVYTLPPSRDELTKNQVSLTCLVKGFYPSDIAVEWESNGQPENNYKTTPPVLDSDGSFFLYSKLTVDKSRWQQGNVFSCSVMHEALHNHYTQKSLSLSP

Take `CC(C)C[C@@H]1NC(=O)[C@H](CCC(=O)O)NC(=O)CNC(=O)[C@H](CCCNC(=N)N)NC(=O)[C@H](Cc2c[nH]cn2)NC(=O)[C@H](Cc2ccc(O)cc2)NC(=O)[C@H](C)NC(=O)[C@@H](NC(=O)[C@H](CC(=O)O)NC(=O)[C@@H]2CCCN2C(=O)CNC(=O)[C@H](CO)NC(=O)CNC(=O)CNC(=O)[C@H](CO)NC(=O)CN)CSCC(=O)CSC[C@@H](C(=O)N[C@H](C(=O)N[C@@H](Cc2ccccc2)C(=O)N[C@@H](Cc2c[nH]cn2)C(=O)O)[C@@H](C)O)NC(=O)[C@H](Cc2c[nH]c3ccccc23)NC(=O)[C@H](C(C)C)NC1=O` [IgG-BP-LongGS 1,3-dichloroacetone] (H-GSGGSGPDCAYHRGELVWCTFH-OH; linker 9-19 via CH2COCH2; N-terminus and C-terminus assumed): the “initial value of DBC of peptide column” value with human serum-derived IgG is listed as 2.3 mg/mL-column. In addition, the “reduction of affinity as compared with the original peptide” value on human IgG1 (Kd relative to original disulfide IgG-binding peptide) is “about 500 fold”. In addition, the kd on human IgG1 (SPR, IgG immobilized on CM5 chip, HBS-EP pH 7.4) was 0.005. In addition, the ka at human IgG1 (SPR, IgG immobilized on CM5 chip, HBS-EP pH 7.4, in M-1 s-1 (unit assumed)) stood at 1.00E+03. In addition, the Kd on IgG was 4.9 µM.
